The results in this text go back to the Deep4Chem optical property database.

Several values for one entry are separate records, joined by “and”; a condition that tells them apart may be missing. Equal values may be shown once.

This data set in a line: solvent given as SMILES.

`Cc1ccc(C2=C3C=C(I)C=[N+]3[B-](F)(F)n3cc(I)cc32)cc1` displayed a fluorescence lifetime (in C1CCCCC1) of 0.117 ns; a fluorescence lifetime (in CC#N) of 0.057 ns; a fluorescence lifetime (in CCO) of 0.065 ns; a fluorescence lifetime (in CCOC(C)=O) of 0.069 ns; a fluorescence lifetime (in CO) of 0.057 ns; a fluorescence lifetime (in OCC(F)(F)F) of 0.072 ns.
For the setting “in Cc1ccccc1”, `CN(C)c1ccc(C#Cc2cc3ccc4cc(C#Cc5ccc(N(C)C)cc5)cc5ccc(c2)c3c45)cc1` gave a fluorescence lifetime of 60 ns.
Still for that read-out and setting: then `Fc1c(-n2c3ccccc3c3ccccc32)c(-c2nnc(-c3ccccc3)o2)c(-n2c3ccccc3c3ccccc32)c(-n2c3ccccc3c3ccccc32)c1-n1c2ccccc2c2ccccc21`, with 3.2 ns.
Regarding `COc1ccc2c3c([nH]c2c1)C(C)=NCC3`, the fluorescence lifetime by setting is: (in CC#N) 5.29 ns; (in CS(C)=O) 2.91 ns; (in O) 4.65 ns.
As to `CC1(CCCCC(=O)NCCCCCCO)C(/C=C/C=C/C=C2/N(CCCS(=O)(=O)[O-])c3ccc(S(=O)(=O)[O-])cc3C2(C)C)=[N+](CCCS(=O)(=O)[O-])c2ccc(S(=O)(=O)[O-])cc21` (stereo not given), where the note is “in O”, the fluorescence lifetime was 1 ns.
Regarding `CC1=[N+]2C(=C(c3ccc(Br)cc3)c3ccc(C)n3[B-]2(F)F)C=C1c1cc2n(c1)[B-](F)(F)[N+]1=CC=CC1=C2c1c(C)cc(C)cc1C`, the fluorescence lifetime (in C1CCCCC1) is 3.01 ns and the fluorescence lifetime (in CCOC(C)=O) is 0.938 ns.
`Cc1cc2nc3[nH]c(=O)n(C)c(=O)c3nc2cc1C` returned a fluorescence lifetime (in CC#N) of 0.64 ns.
The molecule `O=C1c2ccccc2-c2ccc(N3CCOCC3)c3cccc1c23` registered a fluorescence lifetime (in ClC(Cl)Cl) of 10.9 ns.
In the case of `Cn1c2ccccc2c2c1c1ccccc1n2C`, the fluorescence lifetime (in CCCO) is 9 ns.
As to `Cc1cc(-c2ccc(-n3c4ccccc4c4ccccc43)cc2)nc(-c2ccc(-c3ccccc3)cc2)n1`, the fluorescence lifetime by setting is: (in C1CCOC1) 4.02 ns; (in CN(C)C=O) 6.66 ns; (in Cc1ccccc1) 2.27 ns; (in ClC(Cl)Cl) 3.93 ns.
Regarding `COc1ccc(/C=C/C=C/C=C/c2ccc([N+](=O)[O-])cc2)cc1`, the fluorescence lifetime is, setting by setting: (in C1CCOC1) 1.7 ns; (in C1COCCO1) 1.9 ns; (in CC1CCCCC1) 0.7 ns; (in Cc1ccccc1) 1.5 ns.
As to `CC1=C2C=CC(C)=[N+]2[B-](F)(F)n2cccc21`, the fluorescence lifetime (in CCCCCC) is 6.61 ns, the fluorescence lifetime (in CO) was 6.76 ns and the fluorescence lifetime (in ClCCl) was 6.23 ns.
For the molecule `NNC(=O)NNN1C(=O)c2cc(S(=O)(=O)[O-])cc3c(N)c(S(=O)(=O)[O-])cc(c23)C1=O`, the fluorescence lifetime reads like this: (in C1COCCO1) 3.4 ns; (in CC#N) 10.7 ns; (in CC(C)=O) 4.6 ns; (in CC(C)O) 9.6 ns; (in CCCCCCCCO) 8.8 ns; (in CCO) 9.2 ns. In addition, the fluorescence lifetime worked out at 2.5 ns (in CCOC(C)=O); 9.5 ns (in CO); 10.7 ns (in CS(C)=O); 5.1 ns (in O); 7.9 ns (in OCCO); 6.3 ns (in c1ccncc1).
For `CC1(C)CC(/N=C/c2ccc3ccc4cccc5ccc2c3c45)CC(C)(C)N1`, the fluorescence lifetime was 7.3 ns (in C1CCCCC1), 2.9 ns (in CC#N), 2.6 ns (in CO) and 0.3 ns (in ClC(Cl)Cl).
`CCOc1cc2c(cc1/C=C/C1=CC(=C(C#N)C#N)CC(C)(C)C1)c1ccccc1n2CC` registered a fluorescence lifetime (in C1CCOC1) of 4.47 ns; a fluorescence lifetime (in CC#N) of 3.81 ns; a fluorescence lifetime (in CCO) of 4.28 ns; a fluorescence lifetime (in CCOC(C)=O) of 7.08 ns; a fluorescence lifetime (in CN(C)C=O) of 4.01 ns; a fluorescence lifetime (in CS(C)=O) of 4.94 ns. The fluorescence lifetime by setting is: (in Cc1ccccc1) 3.84 ns; (in ClC(Cl)Cl) 4.37 ns; (in ClCCl) 6.24 ns.
Regarding `F[B-]1(F)n2cccc2C=C2C=CC=[N+]21`, the fluorescence lifetime is 6.47 ns (in C1CCCCC1); 7.12 ns (in CC(C)=O); 6.79 ns (in CCCCCC); 7.02 ns (in CCO); 6.9 ns (in CCOC(C)=O); 7.35 ns and 7.33 ns (in CO). For the same molecule, the fluorescence lifetime is, setting by setting: (in ClCCl) 6.78 ns; (in OCC(F)(F)F) 8.23 ns.
Where the note is “in C1CCCCC1”, `COC(=O)c1nc(Br)c(-c2ccccc2)o1` gave a fluorescence lifetime of 0.49 ns.
`CC[N+](CC)=c1ccc2c(-c3ccccc3C(=O)O)c3cc4c(-c5ccccc5C(=O)O)c5ccc(=[N+](CC)CC)cc-5oc4cc3oc-2c1` registered a fluorescence lifetime (in ClC(Cl)Cl) of 0.72 ns.
Regarding `CCc1c(C)[nH]c(C2=[N+]3C(=Cc4c(C)c(CC)c(C)n4[B-]3(F)F)c3ccccc32)c1C`, the fluorescence lifetime (in ClCCl) was 6.3 ns.
As for `COc1ccc(-c2ccc(OC)cc2)cc1`, under “in C1CCCCC1”, the fluorescence lifetime is 17.7 ns.
Where the note is “in ClCCl”, `CC(C)(C)c1ccc(-c2nc3c4ccc(-c5cc6ccccc6c6ccccc56)cc4c4cc(-c5cc6ccccc6c6ccccc56)ccc4c3n2-c2ccc(C(C)(C)C)cc2)cc1` had a fluorescence lifetime of 7 ns.
`CCCCCCN(CCCCCC)c1ccc(C#Cc2ccc(C#N)cc2)cc1`: the fluorescence lifetime (in CC#N) was 1 ns, the fluorescence lifetime (in CO) worked out at 1 ns and the fluorescence lifetime (in ClCCl) was found to be 2.8 ns.
For `Cc1cc2nc3c(=O)[nH]c(=O)n(C)c3nc2cc1C`, the fluorescence lifetime (in CC#N) turned out to be 0.63 ns.
Under “in ClCCl”, `N#C/C(=C\c1ccc(-c2ccncc2)cc1)c1ccc(-c2ccncc2)cc1` showed a fluorescence lifetime of 0.1 ns.
Regarding `CC1(C)c2ccccc2-c2cc3c4cc(-n5c6ccccc6c6ccccc65)ccc4n(-c4ccc(-c5nc(-c6ccccc6)nc(-c6ccccc6)n5)cc4)c3cc21`, the fluorescence lifetime (in O=P(c1ccccc1)(c1ccccc1)c1ccccc1Oc1ccccc1P(=O)(c1ccccc1)c1ccccc1) came out at 34 ns.
Where the note is “in CN(C)C=O”, `O=C1NC(=O)c2ccc3c4ccc5c6c(ccc(c7ccc1c2c73)c64)C(=O)N(c1ccc(O)cc1)C5=O` displayed a fluorescence lifetime of 2.8 ns.
The molecule `CN(C)c1ccc2c(c1)-c1ccccc1C2=O` had a fluorescence lifetime (in C1CCCCC1) of 6.1 ns, a fluorescence lifetime (in CC#N) of 4.8 ns and a fluorescence lifetime (in c1ccccc1) of 11 ns.
With `CCN(CC)c1ccc2c(c1)oc(=O)c1cc3c(C)nn(-c4ccccc4)c3nc12`, where the note is “in ClCCl”, the fluorescence lifetime was 17.1 ns.
Take `C=CCNS(=O)(=O)c1ccc2c(c1)C(=O)/C(=C1\Sc3ccc(S(=O)(=O)NCC=C)cc3C1=O)S2`: the fluorescence lifetime is 8.17 ns (in CN(C)C=O) and 0.06 ns (in CS(C)=O).
`COc1ccc(-c2nc3c(c4c2-c2ccc(C#N)cc2CC4)-c2ccc(C#N)cc2CC3)cc1` yielded a fluorescence lifetime (in CS(C)=O) of 0.27 ns.
Regarding `CCOC(=O)c1ccc(C2CC(c3cccc4ccccc34)=NN2c2ccc(C)cc2)cc1` (stereo not given), under “in ClCCl”, the fluorescence lifetime was 4.56 ns.
For the molecule `CC(C)[Si]1(C(C)C)c2cc(C=C(C#N)C#N)ccc2-c2ccc(N(C)C)cc21`, the fluorescence lifetime reads like this: (in C1CCCCC1) 0.3 ns; (in ClCCl) 3.2 ns.
Take `O=C1c2ccc(N(c3ccccc3)c3ccccc3)cc2C(=O)c2ccc(N(c3ccccc3)c3ccccc3)cc21`: the fluorescence lifetime came to 5.3 ns (in Cc1ccccc1) and 4.9 ns (in c1ccc2c(c1)c1ccccc1n2-c1ccc(-c2ccc(-n3c4ccccc4c4ccccc43)cc2)cc1).
